{"source": "paper PMC5238498", "about": "“Bivalent IAP antagonists, but not monovalent IAP antagonists, inhibit TNF-mediated NF-κB signaling by degrading TRAF2-associated cIAP1 in cancer cells” (Cell Death Discovery, 2017)"}
{"target": "T1, cIAP1 BIR3 domain (Homo sapiens, UniProt Q13490)", "T1 construct": "gene BIRC2; isolated purified BIR3 domain", "T1 sequence (Q13490 260-352 limits assumed)": "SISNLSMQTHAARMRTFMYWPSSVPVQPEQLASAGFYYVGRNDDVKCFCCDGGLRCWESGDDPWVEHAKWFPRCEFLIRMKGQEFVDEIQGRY", "test": "fluorescence polarization assay", "conditions": "read-out: cIAP1 BIR3 binding (Ki, nmol/l)", "text": "fluorescence polarization assay on cIAP1 BIR3 domain", "units": {"Ki": "nmol/L"}}
{"smiles": "CN[C@@H](C)C(=O)N[C@H](C(=O)N1C[C@@H](O)C[C@H]1Cc1c(-c2[nH]c3cc(F)ccc3c2C[C@@H]2C[C@H](O)CN2C(=O)[C@@H](NC(=O)[C@H](C)NC)C(C)(C)C)[nH]c2cc(F)ccc12)C(C)(C)C", "note": "[B3]", "Ki": "~1"}
{"smiles": "CC[C@H](NC(=O)[C@H](C)NC)C(=O)N1C[C@@H](O)C[C@H]1Cc1c[nH]c2cc(F)ccc12", "note": "[M1]", "Ki": "~1"}
{"smiles": "CN[C@@H](C)C(=O)N[C@H](C(=O)N1C[C@@H](O)C[C@H]1Cc1c[nH]c2cc(F)ccc12)C(C)(C)C", "note": "[M3]", "Ki": "~1"}
{"smiles": "CN[C@@H](C)C(=O)N[C@H](C(=O)N1C[C@@H](O)C[C@H]1Cc1c[nH]c2cc(F)ccc12)[C@@H](C)OC", "note": "[M2]", "Ki": "~1"}
{"smiles": "CN[C@@H](C)C(=O)N[C@H](C(=O)N1C[C@@H](O)C[C@H]1Cc1c(-c2[nH]c3cc(F)ccc3c2C[C@@H]2C[C@H](O)CN2C(=O)[C@@H](NC(=O)[C@H](C)NC)[C@@H](C)OC)[nH]c2cc(F)ccc12)[C@@H](C)OC", "note": "[B2]", "Ki": "~1"}
